Common to all, as to format: in vivo
Assay [1] concerns Amaranthus retroflexus (redroot pigweed). In words: Example B2: herbicidal action post emergence, 500 g/ha. The conditions noted are these: applied to the foliage, 13 days after application, 0 is no damage to plants, 100 is plants completely dead. The protocol: (§1) Monocotyledonous and dicotyledonous test plants were sown in seed trays in standard compost and were grown for eight days. The trays were watered twice daily or as required. The chemicals were applied by track sprayer to the foliage. The application was carried out with an aqueous suspension of the test substances, prepared as a formulation of 50% acetone in water with 0.5% Tween 20™ (CAS RN 9005-64-5), to achieve a field equivalent of 1000 l/ha. The application rate of the test substances was 500 g/ha. A visual assessment of the herbicidal effect was made at 13 days after application. The following percentage scale was used for assessment: 0, 5, 10, 20, 30, 40, 50, 60, 70, 80, 90, 95, 100 (where O is no damage to plants and 100 is plants are completely dead).

The subject of assay [2] is Echinochloa crus-galli (barnyard grass). The assay is described as above. Conditions: applied to the foliage, 13 days after application, 0 is no damage to plants, 100 is plants completely dead. The method, then: as §1
Assay [3] deals with Alopecurus myosuroides (slender foxtail). Described as above. The conditions noted are these: applied to the foliage, 13 days after application, 0 is no damage to plants, 100 is plants completely dead. The method, then:
as §1

Assay [4] concerns Stellaria media (chickweed). Described as above. The conditions noted are these: applied to the foliage, 13 days after application, 0 is no damage to plants, 100 is plants completely dead. The method, then: as §1
For assay [5], the system named is Monocotyledonous and dicotyledonous test plants. In words: Example B1: herbicidal action prior to emergence (pre-emergence), 500 g/ha. The conditions noted are these: 13 days after application, 0 = no damage, 100 = plants completely dead; for ALOMY herbicidal effect (visual assessment, percentage scale): Alopecurus myosuroides (slender foxtail); for AMARE herbicidal effect (visual assessment, percentage scale): Amaranthus retroflexus (redroot pigweed); for ECHCG herbicidal effect (visual assessment, percentage scale): Echinochloa crus-galli (barnyard grass); for STEME herbicidal effect (visual assessment, percentage scale): Stellaria media (chickweed). The method, then: as §1, with “standard compost.” for “standard compost and were grown for eight days.”, “sprayer at” for “sprayer to”, “the soil surface.” for “the foliage.”, “(where 0” for “(where O”

Assay [6] shares this test system. Put plainly: Example B3: herbicidal action prior to emergence (pre-emergence), 96-cell seed trays, 1000 g/ha. The arrangement: key: 0 is no damage to plant; 5 is total damage to plant. The conditions noted are these: 9 days after application; for AGSTE herbicidal effect (visual assessment, scale 0-5): Agrostis tenius (Colonial bentgrass); for AMARE herbicidal effect (visual assessment, scale 0-5): Amaranthus retroflexus (redroot pigweed); for DIGSA herbicidal effect (visual assessment, scale 0-5): Digitaria sanguinalis (hairy finger-grass); for POATR herbicidal effect (visual assessment, scale 0-5): Poa trivialis (rough blue grass); for SETIT herbicidal effect (visual assessment, scale 0-5): Setaria italica (foxtail millet). The protocol:
Monocotyledonous and dicotyledonous test plants were sown in sterilised standard soil in seed trays each with 96 cells. The seed trays were stored under controlled conditions in a climatic chamber for one day (cultivation at 23° C. during the day and 17° C. at night; 13 hours of light; 50-60% humidity). The chemicals were applied to the soil surface. The application was carried out with an aqueous suspension of the test substances, prepared as a formulation in water with 10% dimethyl sulfoxide (CAS RN 67-68-5), to achieve a field equivalent of 1000 l/ha. The application rate of the test substances was 1000 g/ha. The plants were grown on in the climatic chamber for 9 days (cultivation at 24° C. during the day and 19° C. at night; 13 hours of light; 50-60% humidity). A visual assessment of the herbicidal effect was made at 9 days after application. The following scale was used for assessment: 0, 1, 2, 3, 4 and 5 (where 0 is no damage to plant and 5 is total damage to plant).

SMILES strings stand for the structures.

`Cn1nc(C(F)(F)F)c(C[S+]([O-])c2ncc(Br)s2)c1Cl` (racemic) [1.005]: the “AMARE, visual assessment of the herbicidal effect” value (“AMARE, visual assessment” below) in assay [1] was 80%. Also, in assay [2], the “ECHCG, visual assessment of the herbicidal effect” value (“ECHCG, visual assessment” below) is listed as 80%. In assay [3], the “ALOMY, visual assessment of the herbicidal effect” value (from here on “ALOMY, visual assessment”) stood at 80%. In addition, the “STEME, visual assessment of the herbicidal effect” value (shortened to “STEME, visual assessment”) in assay [4] was 70%. Also, in assay [5], the “ALOMY herbicidal effect (visual assessment, percentage scale)” value is given as 95%; the “AMARE herbicidal effect (visual assessment, percentage scale)” value is 100%; the “ECHCG herbicidal effect (visual assessment, percentage scale)” value is 95%; the “STEME herbicidal effect (visual assessment, percentage scale)” value worked out at 60%.

As for `Cn1nc(C(F)(F)F)c(C[S+]([O-])c2ncc(Cl)s2)c1OCC(F)(F)F` (racemic) [1.014], in assay [1], the “AMARE, visual assessment” value turned out to be 70%. Moreover, in assay [2], the “ECHCG, visual assessment” value is recorded as 60%. In assay [3], the “ALOMY, visual assessment” value is recorded as 70%. Besides, the “STEME, visual assessment” value in assay [4] is reported as 80%. For the same molecule, in assay [5], the “ALOMY herbicidal effect (visual assessment, percentage scale)” value stood at 100%; the “AMARE herbicidal effect (visual assessment, percentage scale)” value is given as 100%; the “ECHCG herbicidal effect (visual assessment, percentage scale)” value is 95%; the “STEME herbicidal effect (visual assessment, percentage scale)” value is listed as 95%.

As for `Cn1nc(C(F)(F)F)c(C[S+]([O-])c2ncc(Cl)s2)c1Cl` (racemic) [1.017], the “AMARE, visual assessment” value in assay [1] is 70%. The “ECHCG, visual assessment” value in assay [2] was 60%. The “ALOMY, visual assessment” value in assay [3] is on record as 70%. Moreover, the “STEME, visual assessment” value in assay [4] is recorded as 70%. Besides, in assay [5], the “ALOMY herbicidal effect (visual assessment, percentage scale)” value is recorded as 95%; the “AMARE herbicidal effect (visual assessment, percentage scale)” value was 95%; the “ECHCG herbicidal effect (visual assessment, percentage scale)” value is given as 95%; the “STEME herbicidal effect (visual assessment, percentage scale)” value worked out at 95%.

With `CCOc1c(C[S+]([O-])c2ncc(Br)s2)c(C(F)(F)F)nn1C` (racemic) [1.022], in assay [1], the “AMARE, visual assessment” value worked out at 70%. Further, in assay [2], the “ECHCG, visual assessment” value is 80%. Also, the “ALOMY, visual assessment” value in assay [3] worked out at 60%. Besides, the “STEME, visual assessment” value in assay [4] worked out at 80%. Besides, in assay [5], the “ALOMY herbicidal effect (visual assessment, percentage scale)” value is 95%; the “AMARE herbicidal effect (visual assessment, percentage scale)” value amounted to 100%; the “ECHCG herbicidal effect (visual assessment, percentage scale)” value came to 95%; the “STEME herbicidal effect (visual assessment, percentage scale)” value is 90%.

For the molecule `Cc1cnc([S+]([O-])Cc2c(C(F)(F)F)nn(C)c2OCC(F)(F)F)s1` (racemic) [Compound 1.074], in assay [6], the “AGSTE herbicidal effect (visual assessment, scale 0-5)” value (“AGSTE herbicidal effect” below) turned out to be 5; the “AMARE herbicidal effect (visual assessment, scale 0-5)” value is 3; the “DIGSA herbicidal effect (visual assessment, scale 0-5)” value (“DIGSA herbicidal effect” for short) is 5; the “POATR herbicidal effect (visual assessment, scale 0-5)” value (from here on “POATR herbicidal effect”) is 5. Besides, the “SETIT herbicidal effect (visual assessment, scale 0-5)” value (from here on “SETIT herbicidal effect”) in assay [6] amounted to 4. Moreover, in assay [5], the “ALOMY herbicidal effect (visual assessment, percentage scale)” value worked out at 70%; the “AMARE herbicidal effect (visual assessment, percentage scale)” value worked out at 95%; the “ECHCG herbicidal effect (visual assessment, percentage scale)” value came out at 0%; the “STEME herbicidal effect (visual assessment, percentage scale)” value came out at 80%.

Regarding `Cn1nc(OC(F)F)c(CS(=O)(=O)c2ncc(Cl)s2)c1C(F)(F)F` [Compound 1.055], in assay [6], the “AGSTE herbicidal effect” value is recorded as 4; the “AMARE herbicidal effect (visual assessment, scale 0-5)” value worked out at 2; the “DIGSA herbicidal effect” value turned out to be 5; the “POATR herbicidal effect” value came out at 5. Besides, the “SETIT herbicidal effect” value in assay [6] is 5. In addition, in assay [5], the “ALOMY herbicidal effect (visual assessment, percentage scale)” value was found to be 95%; the “AMARE herbicidal effect (visual assessment, percentage scale)” value stood at 0%; the “ECHCG herbicidal effect (visual assessment, percentage scale)” value is recorded as 100%; the “STEME herbicidal effect (visual assessment, percentage scale)” value turned out to be 0%.

Regarding `Cn1nc(C(F)(F)F)c(CS(=O)(=O)c2ncc(Br)s2)c1OCC(F)(F)F` [Compound No. 1.003, 5-bromo-2-[1-methyl-5-(2,2,2-trifluoroethoxy)-3-trifluoromethyl-1H-pyrazol-4-ylmethanesulfonyl]-thiazole], the “ECHCG, visual assessment” value in assay [2] was 90%. For the same molecule, in assay [3], the “ALOMY, visual assessment” value turned out to be 80%. Also, the “STEME, visual assessment” value in assay [4] stood at 10%. Further, in assay [5], the “ALOMY herbicidal effect (visual assessment, percentage scale)” value is on record as 95%; the “AMARE herbicidal effect (visual assessment, percentage scale)” value is listed as 95%; the “ECHCG herbicidal effect (visual assessment, percentage scale)” value is reported as 95%; the “STEME herbicidal effect (visual assessment, percentage scale)” value turned out to be 70%.

Consider `CCSc1c(CS(=O)(=O)c2ncc(Cl)s2)c(C(F)(F)F)nn1C` [Compound No. 1.077, 5-chloro-2-(5-ethylsulfanyl-1-methyl-3-trifluoromethyl-1H-pyrazole-4-ylmethanesulfonyl)-thiazole], for which, in assay [6], the “AGSTE herbicidal effect” value is on record as 5; the “AMARE herbicidal effect (visual assessment, scale 0-5)” value amounted to 3; the “DIGSA herbicidal effect” value is given as 5; the “POATR herbicidal effect” value is 5. The “SETIT herbicidal effect” value in assay [6] stood at 4.

For `CCS(=O)(=O)c1c(CS(=O)(=O)c2ncc(Cl)s2)c(C(F)(F)F)nn1C` [Compound No. 1.081], in assay [6], the “AGSTE herbicidal effect” value was determined as 5; the “AMARE herbicidal effect (visual assessment, scale 0-5)” value was found to be 5; the “DIGSA herbicidal effect” value is reported as 0; the “POATR herbicidal effect” value is reported as 0. In addition, in assay [6], the “SETIT herbicidal effect” value is recorded as 4.

For `Cn1nc(C(F)(F)F)c(CS(=O)(=O)c2ncc(Cl)s2)c1S(C)(=O)=O` [Compound No. 1.093], in assay [6], the “AGSTE herbicidal effect” value is 5; the “AMARE herbicidal effect (visual assessment, scale 0-5)” value is 4; the “DIGSA herbicidal effect” value was found to be 5; the “POATR herbicidal effect” value is reported as 5. Also, in assay [6], the “SETIT herbicidal effect” value was 3.

On to `Cn1nc(C(F)(F)F)c(CSc2ncc(Cl)s2)c1OCCCF` [Compound No. 1.102], for which, in assay [6], the “AGSTE herbicidal effect” value is reported as 5; the “AMARE herbicidal effect (visual assessment, scale 0-5)” value was found to be 2; the “DIGSA herbicidal effect” value came out at 4; the “POATR herbicidal effect” value is recorded as 0. The “SETIT herbicidal effect” value in assay [6] came out at 2.

Take `Cn1cc(C(F)S(=O)(=O)c2ncc(Cl)s2)c(C(F)(F)F)n1` (centres unmarked) [Compound No. 1.110, 5-chloro-2-[fluoro-(1-methyl-3-trifluoromethyl-1H-pyrazol-4-yl)-methanesulfonyl]-thiazole]: in assay [6], the “AGSTE herbicidal effect” value stood at 0; the “AMARE herbicidal effect (visual assessment, scale 0-5)” value is 4; the “DIGSA herbicidal effect” value was 4; the “POATR herbicidal effect” value is 4. Moreover, the “SETIT herbicidal effect” value in assay [6] is 5.

With `Cn1nc(C(F)(F)F)c(CSc2ncc(Cl)s2)c1OC(CF)CF` [Compound No. 1.112], in assay [6], the “AGSTE herbicidal effect” value amounted to 5; the “AMARE herbicidal effect (visual assessment, scale 0-5)” value is 4; the “DIGSA herbicidal effect” value is 5; the “POATR herbicidal effect” value was 0. In addition, the “SETIT herbicidal effect” value in assay [6] is reported as 0.

As to `Cn1nc(C(F)(F)F)c(CSc2ncc(Cl)s2)c1OCC(F)F` [Compound No. 1.115], in assay [6], the “AGSTE herbicidal effect” value is reported as 5; the “AMARE herbicidal effect (visual assessment, scale 0-5)” value is 3; the “DIGSA herbicidal effect” value was 5; the “POATR herbicidal effect” value was 0. Further, the “SETIT herbicidal effect” value in assay [6] is reported as 3.

The values above are taken from US20090048112A1, “Novel Herbicides” (SYNGENTA LIMITED, priority 2005, published 2009).
